From PubChem BioAssay AID2060614 (Molecular Pharmacology Branch, DTP, NCI, 2025)

Tested on: 598228-144-R-J1-PDC complex spheroids, viability
Assay: Anticancer human tumor 598228-144-R-J1-PDC patient-derived serous endometrial adenocarcinoma cell line growth inhibition [CLK]
Conditions: for IC50: curve of first compound; for viability, T/C: stronger effect = lower value
How it was run: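 Multi-cell-type spheroids combined patient-derived tumor cells with HUVEC endothelial cells and human mesenchymal stem cells. Paired agents were dosed in half-log steps down from about clinical Cmax, or from 10 microM where Cmax was unknown.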
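Also: spheroids exposed to compounds for seven days before readout.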
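For viability, T/C in this document: 100% = DMSO vehicle control wells.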

SMILES: Cn1ncnc1[C@H]1c2n[nH]c(=O)c3cc(F)cc(c23)N[C@@H]1c1ccc(F)cc1 + CN1CCN(c2cc(C(=O)Nc3cc4cc(-c5cnn(C)c5)ccc4cn3)ccn2)CC1
- IC50 (second compound 0.0316 µM): > 100 nM
- IC50 (second compound 0.1 µM): > 100 nM
- IC50 (second compound 0.316 µM): < 0.316 nM
- IC50 (second compound 1 µM): < 0.316 nM
- IC50 (second compound 3.16 µM): < 0.316 nM
- IC50 (second compound 10 µM): < 0.316 nM
- viability, T/C (second compound 0.0316 µM, first compound 0.000316 µM): 126%
- viability, T/C (second compound 0.0316 µM, first compound 0.001 µM): 119%
- viability, T/C (second compound 0.0316 µM, first compound 0.00316 µM): 107%
- viability, T/C (second compound 0.0316 µM, first compound 0.01 µM): 113%
- viability, T/C (second compound 0.0316 µM, first compound 0.0316 µM): 107%
- viability, T/C (second compound 0.0316 µM, first compound 0.1 µM): 122%
- viability, T/C (second compound 0.1 µM, first compound 0.000316 µM): 117%
- viability, T/C (second compound 0.1 µM, first compound 0.001 µM): 125%
- viability, T/C (second compound 0.1 µM, first compound 0.00316 µM): 114%
- viability, T/C (second compound 0.1 µM, first compound 0.01 µM): 116%
- viability, T/C (second compound 0.1 µM, first compound 0.0316 µM): 133%
- viability, T/C (second compound 0.1 µM, first compound 0.1 µM): 129%
- viability, T/C (second compound 0.316 µM, first compound 0.000316 µM): 19.3%
- viability, T/C (second compound 0.316 µM, first compound 0.001 µM): 19.1%
- viability, T/C (second compound 0.316 µM, first compound 0.00316 µM): 16.3%
- viability, T/C (second compound 0.316 µM, first compound 0.01 µM): 19%
- viability, T/C (second compound 0.316 µM, first compound 0.0316 µM): 18.8%
- viability, T/C (second compound 0.316 µM, first compound 0.1 µM): 16.7%
- viability, T/C (second compound 1 µM, first compound 0.000316 µM): 1.63%
- viability, T/C (second compound 1 µM, first compound 0.001 µM): 1.39%
- viability, T/C (second compound 1 µM, first compound 0.00316 µM): 1.72%
- viability, T/C (second compound 1 µM, first compound 0.01 µM): 1.32%
- viability, T/C (second compound 1 µM, first compound 0.0316 µM): 3.04%
- viability, T/C (second compound 1 µM, first compound 0.1 µM): 3.99%
- viability, T/C (second compound 3.16 µM, first compound 0.000316 µM): 1.68%
- viability, T/C (second compound 3.16 µM, first compound 0.001 µM): 3.14%
- viability, T/C (second compound 3.16 µM, first compound 0.00316 µM): 1.85%
- viability, T/C (second compound 3.16 µM, first compound 0.01 µM): 2.2%
- viability, T/C (second compound 3.16 µM, first compound 0.0316 µM): 1.94%
- viability, T/C (second compound 3.16 µM, first compound 0.1 µM): 6.61%
- viability, T/C (second compound 10 µM, first compound 0.000316 µM): 1.05%
- viability, T/C (second compound 10 µM, first compound 0.001 µM): 2.11%
- viability, T/C (second compound 10 µM, first compound 0.00316 µM): 1.83%
- viability, T/C (second compound 10 µM, first compound 0.01 µM): 0.71%
- viability, T/C (second compound 10 µM, first compound 0.0316 µM): 3.42%
- viability, T/C (second compound 10 µM, first compound 0.1 µM): 4.51%
